According to ChEMBL document CHEMBL5365537, “Development of LM-41 and AF-2112, two flufenamic acid-derived TEAD inhibitors obtained through the replacement of the trifluoromethyl group by aryl rings” (Bioorg Med Chem Lett, 2023):
The source made the active and inactive calls. No cut-off for these calls is given here.

Assays:
[1] = target: Transcriptional enhancer factor TEF-3 (Homo sapiens) (UniProt Q15561); assay: Binding affinity to TEAD4 (unknown origin) assessed as change in aggregation temperature at 25 uM by DSLS thermal shift assay
[2] = target: Transcriptional enhancer factor TEF-3 (Homo sapiens) (UniProt Q15561); assay: Inhibition of TEAD4 in human MDA-MB-231 cells assessed as decrease in TEAD-dependent NF2 gene expression at 10 uM incubated for 24 hrs by RT-qPCR analysis; assay type: cell-based
[3] = target: Transcriptional enhancer factor TEF-3 (Homo sapiens) (UniProt Q15561); assay: Inhibition of TEAD4 in human MDA-MB-231 cells assessed as decrease in TEAD-dependent CTGF gene expression at 10 uM incubated for 24 hrs by RT-qPCR analysis; assay type: cell-based
[4] = target: Transcriptional enhancer factor TEF-3 (Homo sapiens) (UniProt Q15561); assay: Inhibition of TEAD4 in human MDA-MB-231 cells assessed as decrease in TEAD-dependent Cyr61 gene expression at 10 uM incubated for 24 hrs by RT-qPCR analysis; assay type: cell-based
[5] = target: Transcriptional enhancer factor TEF-3 (Homo sapiens) (UniProt Q15561); assay: Inhibition of TEAD4 in human MDA-MB-231 cells assessed as decrease in TEAD-dependent Axl gene expression at 10 uM incubated for 24 hrs by RT-qPCR analysis; assay type: cell-based
MDA-MB-231 = assay: Antimigratory activity against human MDA-MB-231 cells assessed as reduction in cell migration at 10 uM incubated for 48 hrs; assay type: functional, cell-based
[6] = target: Transcriptional enhancer factor TEF-3 (Homo sapiens) (UniProt Q15561); assay: Binding affinity to TEAD4 (unknown origin) assessed as change in aggregation temperature at 25 uM by DSF assay

Sequence of Transcriptional enhancer factor TEF-3 (Homo sapiens) (Q15561 whole entry): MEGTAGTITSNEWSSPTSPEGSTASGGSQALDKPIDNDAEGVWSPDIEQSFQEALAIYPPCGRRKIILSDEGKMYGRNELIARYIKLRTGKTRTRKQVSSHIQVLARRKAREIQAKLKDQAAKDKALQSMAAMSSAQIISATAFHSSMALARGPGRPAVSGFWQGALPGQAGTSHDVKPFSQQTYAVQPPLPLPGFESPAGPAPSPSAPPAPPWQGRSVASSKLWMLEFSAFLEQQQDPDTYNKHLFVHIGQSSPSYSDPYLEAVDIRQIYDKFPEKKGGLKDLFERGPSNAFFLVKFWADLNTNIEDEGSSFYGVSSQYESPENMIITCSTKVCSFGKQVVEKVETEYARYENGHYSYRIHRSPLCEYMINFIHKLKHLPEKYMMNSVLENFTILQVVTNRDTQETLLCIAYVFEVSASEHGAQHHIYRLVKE

## Cc1ccc(C(=O)O)c(Nc2cccc(OCc3ccccc3)c2)c1
[1]
  deltaT: 2.3 °C

## O=C(O)c1ccccc1Nc1cccc(OCc2ccccc2)c1
[1]
  deltaT: 2.9 °C

## O=C(O)c1ccc(F)cc1Nc1cccc(COc2ccccc2)c1
[1]
  deltaT: 3 °C

## Cc1ccc(Nc2cc(F)ccc2C(=O)O)cc1
[1]
  deltaT: 4 °C

## O=C(O)c1ccc(F)cc1Nc1cccc(-c2cccc(Cl)c2)c1
[1]
  deltaT: 3.1 °C

## O=C(O)c1ccc(F)cc1Nc1cccc(-c2ccccc2)c1
[2]
  inhibition: Active
[3]
  inhibition: Active
[4]
  inhibition: Active
[5]
  inhibition: Active
[1]
  deltaT: 3.4 °C
MDA-MB-231
  Activity: Active

## Cc1ccc(Nc2cccc(OCc3ccccc3)c2)c(C(=O)O)c1
[2]
  inhibition: Active
[3]
  inhibition: Active
[4]
  inhibition: inactive
[5]
  inhibition: inactive
[1]
  deltaT: 4 °C
MDA-MB-231
  Activity: Active

## Cc1cccc(Nc2cc(F)ccc2C(=O)O)c1
[1]
  deltaT: 4.7 °C

## O=C(O)c1ccc(F)cc1Nc1cccc(-c2ccccc2C(F)(F)F)c1
[1]
  deltaT: 2.5 °C

## Cc1ccccc1Nc1cc(F)ccc1C(=O)O
[1]
  deltaT: 2.2 °C

## O=C(O)c1ccc(F)cc1Nc1cccc(-c2ccccn2)c1
[1]
  deltaT: 1 °C

## O=C(O)c1cccnc1Nc1cccc(-c2cccc(C(F)(F)F)c2)c1
[1]
  deltaT: 4.8 °C

## O=C(O)c1ccc(F)cc1Nc1cccc(-c2cccnc2)c1
[1]
  deltaT: 0 °C

## O=C(O)c1ccccc1Nc1cccc(-c2ccccc2)c1
[1]
  deltaT: 2.1 °C

## O=C(O)c1cccnc1Nc1cccc(OCCc2ccccc2)c1
[2]
  inhibition: inactive
[3]
  inhibition: inactive
[4]
  inhibition: inactive
[5]
  inhibition: inactive
[6]
  deltaT: 3.6 °C

## O=C(O)c1ccc(F)cc1Nc1cccc(-c2ccc(C(F)(F)F)cc2)c1
[1]
  deltaT: 4.5 °C

## O=C(O)c1ccc(F)cc1Nc1cccc(-c2cccc(Br)c2)c1
[1]
  deltaT: 3.9 °C

## COc1cccc(-c2cccc(Nc3cc(F)ccc3C(=O)O)c2)c1
[1]
  deltaT: 3.5 °C

## O=C(O)c1ccc(F)cc1Nc1cccc(OCCc2ccccc2)c1
[2]
  inhibition: Active
[3]
  inhibition: Active
[4]
  inhibition: Active
[5]
  inhibition: Active
[1]
  deltaT: 5.1 °C
MDA-MB-231
  Activity: Active

## O=C(O)c1ccc(F)cc1Nc1cccc(-c2cccc(F)c2)c1
[1]
  deltaT: 3.9 °C

## Cc1ccc(Nc2cc(F)ccc2C(=O)O)cc1OCc1ccccc1
[1]
  deltaT: 3.8 °C

## O=C(O)c1ccc(F)cc1Nc1ccccc1-c1cccs1
[2]
  inhibition: inactive
[3]
  inhibition: inactive
[4]
  inhibition: inactive
[5]
  inhibition: inactive
[1]
  deltaT: 5.5 °C

## COc1ccc(-c2cccc(Nc3cc(F)ccc3C(=O)O)c2)cc1
[1]
  deltaT: 2.7 °C

## O=C(O)c1ccc(F)cc1Nc1cccc(-c2cccc(C(F)(F)F)c2)c1
[1]
  deltaT: 6.2 °C

## O=C(O)c1ccc(F)cc1Nc1cccc(OCc2ccccc2)c1
[2]
  inhibition: Active
[3]
  inhibition: Active
[4]
  inhibition: inactive
[5]
  inhibition: inactive
[1]
  deltaT: 3.8 °C

## O=C(O)c1ccc(F)cc1Nc1cccc(CCc2ccccc2)c1
[1]
  deltaT: 5.6 °C

## COc1ccccc1-c1cccc(Nc2cc(F)ccc2C(=O)O)c1
[1]
  deltaT: 1.3 °C

## O=C(O)c1ccc(F)cc1Nc1cccc(Cc2ccccc2)c1
[1]
  deltaT: 3 °C

## O=C(O)c1cccnc1Nc1cccc(C(F)(F)F)c1
[2]
  inhibition: inactive
[3]
  inhibition: inactive
[4]
  inhibition: inactive
[5]
  inhibition: inactive

## O=C(O)c1ccccc1Nc1cccc(C(F)(F)F)c1
[2]
  inhibition: inactive
[3]
  inhibition: inactive
[4]
  inhibition: inactive
[5]
  inhibition: inactive
MDA-MB-231
  Activity: inactive
